Results published in patent US9469650B2, “Melampomagnolide B derivatives” (BOARD OF TRUSTEES OF THE UNIVERSITY OF ARKANSAS, priority 2013, dated 2016).

Legend:
[1] = system: 786-0
[2] = system: LOX IMVI
[3] = system: CCRF-CEM
[4] = system: UO-31
[5] = system: UACC-257
[6] = system: SK-MEL-2
[7] = system: SNB-19
[8] = system: HOP-92
[9] = system: NCI-H226
[10] = system: MOLT-4
[11] = system: MCF7
[12] = system: UACC-62; assay: panel of 60 human tumor cell lines, growth inhibition (Melanoma); conditions: UACC-62
[13] = system: RXF 393
[14] = system: MALME-3M; assay: panel of 60 human tumor cell lines, growth inhibition (Melanoma); conditions: MALME-3M
[15] = system: PC-3
[16] = system: SK-OV-3
[17] = system: OVCAR-8
[18] = system: MALME-3M
[19] = system: SK-MEL-5
[20] = system: RPMI-8226; assay: panel of 60 human tumor cell lines, growth inhibition (Leukemia); conditions: RPMI-8226
[21] = system: SW-620
[22] = system: MDA-MB-435
[23] = system: T-47D
[24] = system: SR
[25] = system: HCC-2998
[26] = system: A549/ATCC
[27] = system: IGROV1
[28] = system: BT-549
[29] = system: HCT-15
[30] = system: NCI/ADR-RES
[31] = system: UACC-62
[32] = system: SF-295
[33] = system: NCI-H522
[34] = system: SN12C
[35] = system: U251
[36] = system: SNB-75
[37] = system: DU-145
[38] = system: NCI-H460
[39] = system: TK-10
[40] = system: SF-268
[41] = system: NCI-H23
[42] = system: OVCAR-5
[43] = system: K-562
[44] = system: A498
[45] = system: CAKI-1

C=C1C(=O)O[C@H]2[C@H]1CC/C(COC(=O)NC)=C\CC[C@@]1(C)O[C@@H]21 [JVM 2-57]
CC50 [1]: 49.6 µM | CC50 [2]: 43.2 µM | CC50 [3]: 76.3 µM | CC50 [4]: 36.9 µM | CC50 [5]: 44.1 µM | CC50 [6]: 69 µM | CC50 [7]: > 100 µM | CC50 [8]: 29.7 µM | CC50 [9]: 96.1 µM | CC50 [10]: > 100 µM | CC50 [11]: 47.7 µM | Percent Growth ([12]; Log10 Concentration −4.0): −86% | Percent Growth ([12]; Log10 Concentration −5.0): 35% | Percent Growth ([12]; Log10 Concentration −6.0): 86% | Percent Growth ([12]; Log10 Concentration −7.0): 99% | Percent Growth ([12]; Log10 Concentration −8.0): 100% | GI50 ([12]; NCI five dose): 5.11 µM | TGI ([12]; NCI five dose): 1.95E−5 | CC50 [13]: 44.1 µM | Percent Growth ([14]; Log10 Concentration −4.0): −76% | Percent Growth ([14]; Log10 Concentration −5.0): 25% | Percent Growth ([14]; Log10 Concentration −6.0): 94% | Percent Growth ([14]; Log10 Concentration −7.0): 95% | Percent Growth ([14]; Log10 Concentration −8.0): 95% | GI50 ([14]; NCI five dose): 4.38 µM | TGI ([14]; NCI five dose): 1.77E−5 | CC50 [15]: 71.1 µM | CC50 [16]: > 100 µM | CC50 [17]: 57.2 µM | CC50 [18]: 55 µM | CC50 [19]: 66 µM | Percent Growth ([20]; Log10 Concentration −4.0): −53% | Percent Growth ([20]; Log10 Concentration −5.0): 7% | Percent Growth ([20]; Log10 Concentration −6.0): 87% | Percent Growth ([20]; Log10 Concentration −7.0): 94% | Percent Growth ([20]; Log10 Concentration −8.0): 101% | GI50 ([20]; NCI five dose): 2.89 µM | TGI ([20]; NCI five dose): 1.30E−5 | CC50 [21]: 44.7 µM | CC50 [22]: 53.1 µM | CC50 [23]: 40.2 µM | CC50 [24]: > 100 µM | CC50 [25]: 61.6 µM | CC50 [26]: 57.7 µM | CC50 [27]: 77 µM | CC50 [28]: 33.1 µM | CC50 [29]: 41.8 µM | CC50 [30]: > 100 µM | CC50 [31]: 50.5 µM | CC50 [32]: > 100 µM | CC50 [33]: 6.85 µM | CC50 [34]: 78.1 µM | CC50 [35]: 53 µM | CC50 [36]: > 100 µM | CC50 [37]: 39.3 µM | CC50 [38]: 78 µM | CC50 [39]: 31.8 µM | CC50 [40]: 68.6 µM | CC50 [41]: 66.1 µM | CC50 [42]: 44.3 µM | CC50 [43]: > 100 µM | CC50 [44]: 47.4 µM | CC50 [45]: 36.6 µM

C=C1C(=O)O[C@H]2[C@H]1CC/C(COC(=O)N1CCC(F)(F)CC1)=C\CC[C@@]1(C)O[C@@H]21 [JVM 2-66]
CC50 [1]: 48.6 µM | CC50 [2]: 22.5 µM | CC50 [3]: 67.6 µM | CC50 [4]: 22.2 µM | CC50 [5]: 36.5 µM | CC50 [6]: 37 µM | CC50 [7]: 62.7 µM | CC50 [8]: 11.1 µM | CC50 [9]: 10.9 µM | CC50 [10]: > 100 µM | CC50 [11]: 26.4 µM | GI50 [12]: 2.11 µM | TGI [12]: 6.00E−6 | Percent Growth ([12]; Log10 Concentration −4.0): −94% | Percent Growth ([12]; Log10 Concentration −5.0): −24% | Percent Growth ([12]; Log10 Concentration −6.0): 86% | Percent Growth ([12]; Log10 Concentration −7.0): 94% | Percent Growth ([12]; Log10 Concentration −8.0): 97% | CC50 [13]: 5.33 µM | GI50 [14]: 1.9 µM | TGI [14]: 4.82E−6 | Percent Growth ([14]; Log10 Concentration −4.0): −72% | Percent Growth ([14]; Log10 Concentration −5.0): −39% | Percent Growth ([14]; Log10 Concentration −6.0): 84% | Percent Growth ([14]; Log10 Concentration −7.0): 91% | Percent Growth ([14]; Log10 Concentration −8.0): 99% | CC50 [15]: 53.8 µM | CC50 [16]: 63.8 µM | CC50 [17]: 38.5 µM | CC50 [18]: 21.6 µM | CC50 [19]: 40.3 µM | GI50 [20]: 1.98 µM | TGI [20]: 5.83E−6 | Percent Growth ([20]; Log10 Concentration −4.0): −46% | Percent Growth ([20]; Log10 Concentration −5.0): −25% | Percent Growth ([20]; Log10 Concentration −6.0): 81% | Percent Growth ([20]; Log10 Concentration −7.0): 97% | Percent Growth ([20]; Log10 Concentration −8.0): 98% | CC50 [21]: 17.9 µM | CC50 [22]: 95.1 µM | CC50 [23]: > 100 µM | CC50 [24]: > 100 µM | CC50 [25]: 57.9 µM | CC50 [26]: 66.2 µM | CC50 [27]: 59.7 µM | CC50 [28]: 29.5 µM | CC50 [29]: 10 µM | CC50 [30]: 69.5 µM | CC50 [31]: 23.2 µM | CC50 [32]: 51.5 µM | CC50 [33]: 6.08 µM | CC50 [34]: 37.7 µM | CC50 [35]: 52.1 µM | CC50 [36]: 47.2 µM | CC50 [37]: 28.9 µM | CC50 [38]: 72.6 µM | CC50 [39]: 23.5 µM | CC50 [40]: 56.5 µM | CC50 [41]: 48.2 µM | CC50 [42]: 48.1 µM | CC50 [43]: > 100 µM | CC50 [44]: 28.9 µM | CC50 [45]: 23.8 µM
